The values below come from ChEMBL document CHEMBL5223105, “Nitro compounds against trypanosomatidae parasites: Heroes or villains?” (Bioorg Med Chem Lett, 2022).

The structures appear in SMILES notation. pEC50, pIC50: −log10 of the molar value. In brackets after ≈: the same amount, converted by molar mass.

Series [1] concerns Trypanosoma cruzi. Kind of series: Antitrypanosomal activity against Trypanosoma cruzi Tulahuen. The class given is functional, organism-based.
Series [2] concerns Trypanosoma cruzi. Kind of series: Antitrypanosomal activity against Trypanosoma cruzi Brener. The format is functional, organism-based.
For series [3], the system named is Trypanosoma cruzi. Put plainly: Antitrypanosomal activity against Trypanosoma cruzi LQ. The format is functional, organism-based.
Series [4] in a line: Selectivity index, ratio of CC50 for […] J774.2 cells to IC50 Leishmania infantum MCAN/ES/2001/UCM-10. The class given is toxicity. The note with it: J774.2 cells versus Leishmania infantum MCAN/ES/2001/UCM-10; read-out: Ratio CC50/IC50.
Series [5] is described as follows: Cytotoxicity against mouse J774.2 cells. The format is toxicity, cell-based.
The test system of a further series is Leishmania infantum. Put plainly: Antileishmanial activity against Leishmania infantum amastigotes MCAN/ES/2001/UCM-10 infected in J774.2 cells. The class given is functional, organism-based. The note with it: MCAN/ES/2001/UCM-10, J774.2.
Series [6] deals with Trypanosoma cruzi. Kind of series: Antitrypanosomal activity against Trypanosoma cruzi INC-5. The format is functional.
Series [7] concerns Trypanosoma cruzi. Put plainly: Antitrypanosomal activity against Trypanosoma cruzi NINOA. The class given is functional.
Series [8] in a line: Cytotoxicity against rat L6 cells. The format is toxicity, cell-based.
Series [9] can be described thus: Selectivity index, ratio of CC50 for rat L6 cells to IC50 for Leishmania donovani. The note with it: L6 cells versus Leishmania donovani, read-out: Ratio CC50/IC50. The format is toxicity.
Series [10] concerns Leishmania donovani. Put plainly: Antileishmanial activity against Leishmania donovani axenic amastigotes. The format is functional, organism-based.
The nature of series [11]: Cytotoxicity against CHO cells. The class given is toxicity, cell-based, Cricetulus griseus. The note with it: chinese hamster.
Series [12] has as its system Trypanosoma cruzi. Put plainly: Antitrypanosomal activity against Trypanosoma cruzi X10/7-Silvio. The format is functional, organism-based.
Series [13] concerns Leishmania donovani. Kind of series: Antileishmanial activity against Leishmania donovani LCR-L 133 LRC infected in J774.2 cells. The format is functional, organism-based.
Series [14] in a line: Selectivity index, ratio of CC50 for […] J774.2 cells to IC50 Leishmania donovani LCR-L 133 LRC. The class given is toxicity. The settings on record: J774.2 cells versus Leishmania donovani LCR-L 133 LRC; read-out: Ratio CC50/IC50.
The nature of series [15]: Selectivity index, ratio of EC50 for Trypanosoma cruzi epimastigotes to LC50 for african green monkey Vero cells. The class given is toxicity. The settings on record: Vero cells versus Trypanosoma cruzi epimastigotes, read-out: Selectivity Index.
A short description of series [16]: Cytotoxicity against african green monkey Vero cells. The class given is toxicity, cell-based. The settings on record: chlorocebus sabaeus, read-out: LC50 (the source's name).
In series [17] the test system is Trypanosoma cruzi. Put plainly: Antitrypanosomal activity against Trypanosoma cruzi epimastigotes. The format is functional, organism-based.
Series [18] relates to Trypanosoma cruzi. Kind of series: Antitrypanosomal activity against Trypanosoma cruzi epimastigotes assessed as parasite growth inhibition at 50 uM. The class given is functional. Further details: scale not given: the % may be the effect or the level left.
The nature of series [19]: Selectivity index, ratio of CC50 for […] J774.2 cells to IC50 Leishmania braziliensis MHOM/BR/1975/M2904. The class given is toxicity. The settings on record: read-out: Ratio CC50/IC50.
A further series has as its system Leishmania braziliensis. Kind of series: Antileishmanial activity against Leishmania braziliensis MHOM/BR/1975/M2904 infected in J774.2 cells. The class given is functional, organism-based. The note with it: MHOM/BR/1975/M2904, J774.2.
For series [20], the system named is Trypanosoma cruzi. Kind of series: Antitrypanosomal activity against Trypanosoma cruzi Y. The format is functional, organism-based.

Take `Cn1c([N+](=O)[O-])cnc1-c1nnc(NC(=O)C(F)(F)F)s1`: the figures for the pIC50 with Trypanosoma cruzi [1] and with Trypanosoma cruzi [2] were 4.47 and 4.51, respectively.

Turning to `CC(=O)Nc1nnc(-c2ncc([N+](=O)[O-])n2C)s1`, the pIC50 in the series on Trypanosoma cruzi [1], in the series on Trypanosoma cruzi [2] and in the series with Trypanosoma cruzi [3] was 5.13 throughout.

Turning to `CNCCOCCn1nc(OCc2ccccc2)c2cc([N+](=O)[O-])ccc21`, the selectivity ratio in series [4] was 21.6. Further, the CC50 in series [5] worked out at 197 µM. Moreover, the pIC50 in the series on Leishmania infantum is 5.04.

As to `Cn1nc(OCc2ccccc2)c2cc([N+](=O)[O-])ccc21`, in series [4], the selectivity ratio stood at 14.8. In series [5], this compound returned a CC50 of 179 µM. The same compound gave a pIC50 in the series on Leishmania infantum of 4.92.

Regarding `O=[N+]([O-])c1ccc(/C=N/NS(=O)(=O)c2ccccc2)cc1`, the LC50 in the series with Trypanosoma cruzi [6] was determined as 4.68 µM; in the series on Trypanosoma cruzi [7], 26.3 µM.

On to `O=[N+]([O-])c1ccccc1/C=N/NS(=O)(=O)c1ccccc1`, for which the LC50 was determined as 15.2 µM in the series on Trypanosoma cruzi [6] and 218 µM in the series with Trypanosoma cruzi [7].

On to `COc1cc(CSc2nnc(-c3ncc([N+](=O)[O-])n3C)s2)cc(OC)c1OC`, for which, in series [8], the CC50 was 19.4 µg/mL (≈ 45.9 µM). Moreover, the selectivity ratio in [9] was 240. The compound further came in with an IC50 with Leishmania donovani [10] of 0.081 µg/mL (≈ 0.191 µM).

The compound `O=C(Cn1cccc1[N+](=O)[O-])Nc1cccc(C(F)(F)F)c1` showed a CC50 in [11] of 156 µM. This compound showed a pEC50 with Trypanosoma cruzi [12] of 5.44.

Take `O=[N+]([O-])c1ccc2c(c1)c(Oc1ccccc1)nn2CCBr`: the CC50 in [5] stood at 588 µM. In the series with Leishmania donovani [13], this compound showed a pIC50 of 5.80. Also, in series [14], the selectivity ratio amounted to 120.

Regarding `O=[N+]([O-])c1ccc(/C=N/N=c2\[nH]nc(Cl)c3ccccc23)o1`, the selectivity ratio in series [15] is 8.82. Also, the CC50 in series [16] was 100 µM. Also, the pEC50 in the series with Trypanosoma cruzi [17] is 5.20. Moreover, the Activity in the series on Trypanosoma cruzi [18] is given as 48%.

`CCC(=O)N(/N=C/c1ccccc1[N+](=O)[O-])S(=O)(=O)c1ccccc1`: the LC50 in the series with Trypanosoma cruzi [6] was 0.61 µM; in the series with Trypanosoma cruzi [7] it was 68.1 µM.

Regarding `COc1nn(CCN)c2ccc([N+](=O)[O-])cc12`, the selectivity ratio in [4] stood at 140; in series [19], 60. Also, the CC50 in series [5] turned out to be 489 µM. In addition, the pIC50 with Leishmania braziliensis is 5.09; in the series on Leishmania infantum, 5.46.

In [11], `O=C(Cn1cccc1[N+](=O)[O-])Nc1ccccc1` yielded a CC50 of 262 µM. This compound also gave a pEC50 in the series on Trypanosoma cruzi [12] of 5.22.

For `Cn1cnc([N+](=O)[O-])c1-c1nnc(N)[nH]1`, in the series with Trypanosoma cruzi [20], the pIC50 is 4.41.

`O=[N+]([O-])c1ccc(/C=N/N=c2\[nH]nc(Cl)c3ccccc23)s1`: the selectivity ratio in [15] worked out at 5.14. Further, the CC50 in [16] is 37 µM. The compound also showed a pEC50 in the series on Trypanosoma cruzi [17] of 5.14. Besides, the Activity in the series with Trypanosoma cruzi [18] turned out to be 54%.

One may read the pIC50 as −log10 of the IC50, conventionally taken in molar units. By LC50 is commonly meant the concentration lethal to half of the exposed cells or organisms. As a reminder, the IC50 is the midpoint of a concentration-inhibition curve. As usually defined, the pEC50 is the negative decadic logarithm of the EC50, by convention in mol/L.
